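Following 48 hours of exposure in 96-well plates, responses at five concentrations were used to interpolate endpoints linearly. The concentration for 50% growth inhibition is given as GI50.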 Active and inactive are the calls of the source. No stated cut-off is given here; in the data, active = GI50 up to about 1.1 µM and inactive = higher.

This is an account of results in ChEMBL document CHEMBL1201862, “PubChem BioAssay data set” (2004).

Test systems include DMS-273; M19-MEL; DMS-114; HOP-18; SNB-78; KM-20L2; XF498; RXF 631; DLD-1.
Assay in all cases: inhibition of tumour cell growth, NCI panel, 48 h

For `Brc1ccc2ns[s+]c2c1`, the GI50 in the assay on DMS-273 is 1.95 µM (inactive); in the assay on M19-MEL it was 6.24 µM (inactive); in the assay with DMS-114, 3.14 µM (inactive); in the assay on HOP-18, > 47 µM (inactive); with SNB-78, > 31.6 µM (inactive); in the assay on KM-20L2 it was 0.933 µM (active). Further, the GI50 was > 100 µM (inactive) in the assay with XF498 and 5.06 µM (inactive) with RXF 631.
Take `CC1=C(N2CC2)C(=O)C(C)=C(N2CC2)C1=O`: the GI50 in the assay on DMS-273 is 0.0692 µM (active); with M19-MEL, 0.229 µM (active); in the assay with DMS-114 it was 0.129 µM (active); with DLD-1, 0.21 µM (active); with HOP-18 it was 0.451 µM (active); in the assay on SNB-78, 0.836 µM (active). The GI50 with KM-20L2 is 0.178 µM (active); with XF498 it was 0.132 µM (active).
For the compound `COC(=O)C1CCc2nnc(-c3ccccc3)n21` (stereo unspecified), the GI50 in the assay on DMS-273 was > 10 µM (inactive); with M19-MEL, > 100 µM (inactive); with DMS-114, > 100 µM (inactive); in the assay with DLD-1 it was > 100 µM (inactive); with SNB-78 it was > 100 µM (inactive); in the assay with KM-20L2, > 100 µM (inactive). Also, the GI50 in the assay with XF498 is > 100 µM (inactive).
In the case of `CN1c2ccccc2N(C(=O)c2ccc(Cl)cc2)C(CC(=O)O)c2cccn21` (stereo unspecified), the GI50 in the assay with DMS-273, with M19-MEL, with DMS-114, with DLD-1, in the assay on SNB-78 and in the assay on KM-20L2 was > 100 µM (inactive) in each case. The GI50 with XF498 was > 100 µM (inactive).
For `Cn1cc(NC(=O)c2cc(NC(=O)CCCCCCCCCCC(=O)Nc3cc(C(=O)Nc4cc(C(=O)NCCC(=N)N)n(C)c4)n(C)c3)cn2C)cc1C(=O)NCCC(=N)N`, the GI50 in the assay on DMS-273 was 28.2 µM (inactive); with DLD-1, 27.9 µM (inactive); in the assay on HOP-18, 15.2 µM (inactive); with SNB-78, 46.7 µM (inactive); in the assay on KM-20L2, 27 µM (inactive); in the assay on XF498, > 100 µM (inactive).
As for `COC(=O)CCSC(=O)Nc1ccc(/N=N/c2ccccc2)cc1`, the GI50 is 62.7 µM (inactive) in the assay with DMS-273; 45.4 µM (inactive) with M19-MEL; 53.7 µM (inactive) in the assay with DMS-114; 52.5 µM (inactive) in the assay with DLD-1; > 100 µM (inactive) with HOP-18; > 100 µM (inactive) in the assay with SNB-78. The GI50 in the assay on KM-20L2 was 22.7 µM (inactive); in the assay with XF498, 37.5 µM (inactive); in the assay with RXF 631, 67.3 µM (inactive).
As to `CC(=O)Nc1ccc(C(=O)N2N=C(C)/C(=C\c3c(O)ccc4ccccc34)C2=O)cc1`, the GI50 with DMS-273 is > 100 µM (inactive); in the assay on M19-MEL, 45.6 µM (inactive); in the assay on DMS-114, 54.2 µM (inactive); in the assay with DLD-1 it was 30.4 µM (inactive); in the assay on HOP-18, 83 µM (inactive); in the assay with SNB-78 it was > 100 µM (inactive). The GI50 in the assay on XF498 was 28.9 µM (inactive).
As for `CCC(=O)C(C)C(=O)C(=O)C(=O)OC` (stereo unspecified), the GI50 with DMS-273 was > 100 µM (inactive); in the assay on M19-MEL it was > 100 µM (inactive); in the assay on DMS-114 it was > 82.8 µM (inactive); in the assay with DLD-1 it was > 100 µM (inactive); in the assay on HOP-18, > 100 µM (inactive); with SNB-78 it was > 100 µM (inactive). The GI50 with KM-20L2, in the assay on XF498 and with RXF 631 was > 100 µM (inactive) each time.
For the compound `Cn1c(=O)nc2n(-c3ccc(F)c(F)c3)c3ccccc3nc-2c1=O`, the GI50 with DMS-273 is 12.1 µM (inactive); in the assay with M19-MEL, 1.76 µM (inactive); with DMS-114, 4.33 µM (inactive); in the assay on DLD-1, 16 µM (inactive); in the assay with HOP-18, 27.5 µM (inactive); in the assay on SNB-78, 19.3 µM (inactive). Besides, the GI50 in the assay on KM-20L2 was 4.86 µM (inactive); in the assay on XF498 it was 21.7 µM (inactive); in the assay on RXF 631, 16.4 µM (inactive).
Consider `N#C/C(=C\c1ccccc1Br)C(=O)c1ccccc1`, for which the GI50 is 26.8 µM (inactive) in the assay with DMS-273; 33.4 µM (inactive) in the assay with M19-MEL; 97.1 µM (inactive) with DMS-114; 6.67 µM (inactive) with SNB-78; > 87.3 µM (inactive) in the assay with KM-20L2; > 50.2 µM (inactive) in the assay with XF498. Besides, the GI50 in the assay with RXF 631 is > 100 µM (inactive).
On to `COC1C(OC(=O)/C=C/C=C/C=C/C=C/C(=O)O)CCC2(CO2)C1C1(C)OC1CC=C(C)C` (stereo unspecified), for which the GI50 was 32.2 µM (inactive) in the assay with DMS-273; 18.7 µM (inactive) in the assay with M19-MEL; 19.9 µM (inactive) in the assay on DMS-114; 26.7 µM (inactive) in the assay with DLD-1; 23.4 µM (inactive) in the assay with HOP-18; 51.8 µM (inactive) with SNB-78. The GI50 is 32.1 µM (inactive) in the assay with KM-20L2 and 30.8 µM (inactive) with XF498.
`CC1=NN(C(=O)Cc2ccccc2)C(=O)/C1=C\c1ccccc1O`: the GI50 with M19-MEL, in the assay with DMS-114, in the assay with DLD-1, in the assay with SNB-78, in the assay with KM-20L2 and in the assay with XF498 was > 100 µM (inactive) each time.
Consider `CCCCCCC(O)CC[C@H]1CCC[C@@H](C)N1` (stereo partly specified), for which the GI50 was > 100 µM (inactive) in the assay on DMS-273; > 31.6 µM (inactive) with M19-MEL; > 31.6 µM (inactive) in the assay on DMS-114; > 100 µM (inactive) in the assay on DLD-1; > 100 µM (inactive) in the assay on HOP-18; > 100 µM (inactive) in the assay on SNB-78. The GI50 in the assay with KM-20L2 is > 10 µM (inactive).
Regarding `CC1=CC(N2C(=O)C(C)=CC2O)NC1=O` (stereo unspecified), the GI50 in the assay with M19-MEL was > 100 µM (inactive); in the assay on DLD-1, > 100 µM (inactive); in the assay on HOP-18, < 0.01 µM (active); with SNB-78 it was > 100 µM (inactive); in the assay with KM-20L2, > 100 µM (inactive).
With `CCOc1ccccc1N1C(=O)C(=O)C(c2nc3ccccc3s2)C(=O)C1=O`, the GI50 is > 100 µM (inactive) in the assay with DMS-273; 69.5 µM (inactive) with M19-MEL; > 100 µM (inactive) in the assay with DMS-114; > 100 µM (inactive) in the assay on DLD-1; 8.22 µM (inactive) in the assay on HOP-18; > 100 µM (inactive) in the assay with SNB-78. Moreover, the GI50 with KM-20L2 and in the assay with XF498 was > 100 µM (inactive) in each case.
As for `CCCOc1ccc(/C(Cl)=C(\C=O)c2ccc(OC)c(OC)c2)cc1OCCC`, the GI50 was 3.72 µM (inactive) in the assay with DMS-273; 10.5 µM (inactive) in the assay with M19-MEL; 3.07 µM (inactive) in the assay with DMS-114; 5.71 µM (inactive) in the assay on DLD-1; > 100 µM (inactive) in the assay on HOP-18; 6.07 µM (inactive) in the assay on SNB-78. Also, the GI50 is 89.7 µM (inactive) in the assay with KM-20L2 and 6.93 µM (inactive) in the assay with XF498.
`Cc1cc(C)n(-c2c(O)ccc(O)c2-n2nc(C)cc2C)n1`: the GI50 in the assay with DMS-273 was > 100 µM (inactive); in the assay with M19-MEL, 71.6 µM (inactive); in the assay on DMS-114, > 100 µM (inactive); with DLD-1, > 100 µM (inactive); with SNB-78, > 100 µM (inactive); with KM-20L2, > 100 µM (inactive). For the same compound, the GI50 with XF498 and in the assay on RXF 631 was > 100 µM (inactive) each time.
`COc1nc2c(nc(N)n2C2OCC(O)C(O)C2O)c(=O)n1C` (stereo unspecified): the GI50 in the assay with M19-MEL, in the assay with DMS-114, in the assay on DLD-1, in the assay with HOP-18, in the assay on SNB-78 and with KM-20L2 was > 100 µM (inactive) in each case. Also, in the assay with XF498, the GI50 was 41.8 µM (inactive).
In the case of `CN1CCCc2nc3ccccc3n2C1`, the GI50 with DMS-273, with M19-MEL, in the assay on DMS-114, in the assay on DLD-1, with HOP-18 and in the assay on SNB-78 was > 100 µM (inactive) each time. The GI50 in the assay with KM-20L2 and in the assay on XF498 was > 100 µM (inactive) each time.
Regarding `Cc1cc(CC(=O)NCCO)n(CCO)c(=O)c1`, the GI50 in the assay with DMS-273, with M19-MEL, with DMS-114, in the assay on DLD-1, in the assay with HOP-18 and in the assay with SNB-78 was > 100 µM (inactive) in each case. For the same compound, the GI50 in the assay on XF498 and in the assay on RXF 631 was > 100 µM (inactive) each time.
With `Cc1cccc(C)c1NC(=O)C(=O)C(C#N)c1ccccc1` (stereo unspecified), the GI50 in the assay on DMS-273, in the assay with M19-MEL, in the assay on DMS-114, with DLD-1, in the assay with HOP-18 and in the assay with SNB-78 was > 100 µM (inactive) throughout. Further, the GI50 in the assay on KM-20L2 and in the assay on XF498 was > 100 µM (inactive) throughout.
For the compound `Cc1cccc(NC(=O)c2cc3cc(/N=N/c4ccccc4Cl)ccc3oc2=O)c1`, the GI50 in the assay on DMS-273 is 26.9 µM (inactive); in the assay with M19-MEL, 32.1 µM (inactive); in the assay on DMS-114, 22.7 µM (inactive); in the assay on DLD-1 it was 26.4 µM (inactive); in the assay on HOP-18 it was 72.9 µM (inactive); in the assay on SNB-78, 59.7 µM (inactive). Further, the figures for the GI50 with KM-20L2, in the assay with XF498 and in the assay on RXF 631 were > 100 µM (inactive), 24.2 µM (inactive) and 25.1 µM (inactive), respectively.
Turning to `O=c1nc(/C=C/c2ccccc2Cl)cc2n1CCN2CCO`, the GI50 in the assay with M19-MEL was > 100 µM (inactive); in the assay on DMS-114, 24.8 µM (inactive); in the assay with DLD-1 it was > 100 µM (inactive).
On to `CCOc1ccc(C(CN2CCOCC2)C(C)=O)cc1OC` (stereo unspecified), for which the GI50 with DMS-273 is 11.3 µM (inactive); in the assay with M19-MEL, 18.9 µM (inactive); with DMS-114, 15.7 µM (inactive); in the assay on DLD-1, 10.6 µM (inactive); in the assay with HOP-18 it was 16.2 µM (inactive); in the assay on SNB-78 it was 20.7 µM (inactive). In addition, the GI50 in the assay on KM-20L2 was 18.8 µM (inactive); in the assay on XF498 it was 25.3 µM (inactive).
As for `Cc1cc(C)c(C2=NO[C@@H]3C(=O)N(c4ccc(Cc5ccc(N6C(=O)[C@H]7C(c8c(C)cc(C)cc8C)=NO[C@H]7C6=O)cc5)cc4)C(=O)[C@H]23)c(C)c1`, the GI50 in the assay on DMS-273, in the assay with M19-MEL, in the assay on DMS-114, in the assay with DLD-1, in the assay with HOP-18 and in the assay with SNB-78 was > 100 µM (inactive) each time. For the same compound, the GI50 with KM-20L2 and in the assay with XF498 was > 100 µM (inactive) throughout.
